This is an account of results in patent publication US20090197859A1 (Pfizer Inc., priority 2008, published 2009).

The target of the experiment is T1, cloned human 5-HT6 receptor (Homo sapiens, UniProt P50406).
T1 construct: host or cells: HeLa cells, G-418 selection, membrane preparation
Description: 5-HT6 Receptor Binding Assay ([3H]-LSD radioligand, SPA). The following applies: read-out: 5HT6 % inh @ 1 uM. The protocol: 5-HT6 Receptor Binding Assay
Hela cells containing the cloned human 5-HT6 receptor were acquired from Dr. David R. Sibley's laboratory in National Institute of Health (see Sibley, D. R., J. Neurochemistry, 66, 47-56, 1996). Cells were grown in high glucose Dulbecco's modified Eagle's medium, supplemented with L-glutamine, 0.5% sodium pyruvate, 0.3% penicillin-streptomycin, 0.025% G-418 and 5% Gibco fetal bovine serum and then were harvested, when confluent, in cold phosphate buffered saline.
Harvested intact cells were washed once in cold phosphate-buffered saline. The cells were pelleted and resuspended in 100 ml of cold 50 mM Tris, 5 mM EDTA and 5 mM EGTA, pH 7.4. Homogenization was with a Vir Tishear generator, 4 cycles for 30 seconds each at setting 50. The homogenized cells were centrifuged at […] for 10 minutes and the supernatant was removed. The pellet was resuspended in 100 ml of the above buffer and rehomogenized for 2 cycles. The rehomogenized cells were then centrifuged at […] for 10 minutes and the supernatant was removed. The combined supernatant (200 ml) was centrifuged at 23,000 RPM (80,000×g) for 1 hour in a Beckman Rotor (42.1 Ti). The membrane pellet was resuspended in […] of assay buffer containing HEPES 20 mM, MgCl2 10 mM, NaCl 150 mM, EDTA 1 mM, pH 7.4 and stored frozen in aliqouts at −70° C.
The radioligand binding assay used [^3H]-lysergic acid diethylamide (LSD). The assay was carried out in Wallac 96-well sample plates by the addition of 11 μl of the test sample at the appropriate dilution (the assay employed 11 serial concentrations of samples run in duplicate), 11 μl of radioligand, and 178 μl of a washed mixture of WGA-coated SPA beads and membranes in binding buffer. The plates were shaken for about 5 minutes and then incubated at room temperature for 1 hour. The plates were then loaded into counting cassettes and counted in a Wallac MicroBeta Trilux scintillation counter.
Binding Constant Determination may be obtained by performing serial dilutions, e.g., eleven dilutions, of test compounds into assay plates using the PE/Cetus Pro/Pette pipetter. These dilutions are followed by radioligand and the bead-membrane mixture prepared as described above. After obtaining the specifically bound cpm, the data are fit to a one-site binding model using GraphPad Prism ver. 2.0. Estimated IC50 values are converted to Ki values using the Cheng-Prusoff equation (Cheng, Y. C. et al., Biochem. Pharmacol., 22, 3099-108, 1973).

T1 sequence (P50406 whole entry): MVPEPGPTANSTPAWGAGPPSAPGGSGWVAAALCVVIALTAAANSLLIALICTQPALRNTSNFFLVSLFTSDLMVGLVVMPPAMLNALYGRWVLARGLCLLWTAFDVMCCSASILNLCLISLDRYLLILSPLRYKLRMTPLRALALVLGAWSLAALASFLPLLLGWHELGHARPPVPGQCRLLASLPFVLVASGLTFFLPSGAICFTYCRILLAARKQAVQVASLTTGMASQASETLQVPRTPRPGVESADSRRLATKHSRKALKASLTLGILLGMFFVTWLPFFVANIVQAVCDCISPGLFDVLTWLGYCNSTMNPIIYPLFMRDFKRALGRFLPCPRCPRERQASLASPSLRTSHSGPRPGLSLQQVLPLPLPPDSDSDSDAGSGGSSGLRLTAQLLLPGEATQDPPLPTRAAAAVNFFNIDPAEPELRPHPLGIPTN

As to `Cc1ccccc1OC1CCN(C(=O)c2cccc(C3CCN(C)CC3)n2)CC1` [Example 95, (1′-Methyl-1′,2′,3′,4′,5′,6′-hexahydro-[2,4′]bipyridinyl-6-yl)-(4-o-tolyloxy-piperidin-1-yl)-methanone], the inhibition at 1 µM turned out to be 84%. As to `Cc1cccc(C2CN(C(=O)c3cccc(N4CCN(C)CC4)n3)C2)c1` [Example 91, [6-(4-Methyl-piperazin-1-yl)-pyridin-2-yl]-(3-m-tolyl-azetidin-1-yl)-methanone], the inhibition at 1 µM was found to be 84.8%. The result for `CN1CCN(c2cccc(C(=O)N3CCCC(c4ccccc4F)CC3)n2)CC1` (stereo not drawn) [Example 116, [4-(2-Fluoro-phenyl)-azepan-1-yl]-[6-(4-methyl-piperazin-1-yl)-pyridin-2-yl]-methanone] reads 98.5%.

Turning to `CN1CCN(c2cccc(C(=O)N3CCC(Oc4ccc(F)cc4F)CC3)n2)CC1` [Example 109, [4-(2,4-Difluoro-phenoxy)-piperidin-1-yl]-[6-(4-methyl-piperazin-1-yl)-pyridin-2-yl]-methanone], the inhibition at 1 µM was 97.8%. `O=C(c1cccc(N2CCNCC2)n1)N1CCC(c2ccccc2F)CC1` [Example 22, [4-(2-Fluoro-phenyl)-piperidin-1-yl]-(6-piperazin-1-yl-pyridin-2-yl)-methanone]: the inhibition at 1 µM is 96.8%. Regarding `Cc1ccccc1C1CCCCN1C(=O)c1cccc(N2CCNCC2)n1` (stereo not drawn) [Example 26, (6-Piperazin-1-yl-pyridin-2-yl)-(2-o-tolyl-piperidin-1-yl)-methanone], the inhibition at 1 µM is 78.6%.

For `CN1CCN(c2cccc(C(=O)N3CCC(Cc4ccccc4F)CC3)n2)CC1` [Example 115, [4-(2-Fluoro-benzyl)-piperidin-1-yl]-[6-(4-methyl-piperazin-1-yl)-pyridin-2-yl]-methanone], the inhibition at 1 µM worked out at 101%. `CN1CCN(c2cccc(C(=O)N3CCC(F)(c4ccccc4F)CC3)n2)CC1` [Example 107, [4-Fluoro-4-(2-fluoro-phenyl)-piperidin-1-yl]-[6-(4-methyl-piperazin-1-yl)-pyridin-2-yl]-methanone]: the inhibition at 1 µM was determined as 97.2%.

On to `CN1CCC(c2cccc(C(=O)N3CCC(Oc4cccc(F)c4)CC3)n2)C1` (stereo not drawn) [Example 16, [4-(3-Fluoro-phenoxy)-piperidin-1-yl]-[6-(1-methyl-pyrrolidin-3-yl)-pyridin-2-yl]-methanone], for which the inhibition at 1 µM came to 93.2%. The figure for `Cc1cccc(F)c1C1CCN(C(=O)c2cccc(C3=CCNC3)n2)CC1` [Example 110, [6-(2,5-Dihydro-1H-pyrrol-3-yl)-pyridin-2-yl]-[4-(2-fluoro-6-methyl-phenyl)-piperidin-1-yl]-methanone] is 98.2%; for `Cc1ccc([C@@H](C)N(C)C(=O)c2cccc(N3CCN(C)CC3)n2)cc1` [Example 60, 6-(4-Methyl-piperazin-1-yl)-pyridine-2-carboxylic acid methyl-((R)-1-p-tolyl-ethyl)-amide] it is 73.8%; for `O=C(c1cccc(N2CCCNCC2)n1)N1CC[C@H](Oc2ccccc2F)C1` [Example 30, (6-[1,4]Diazepan-1-yl-pyridin-2-yl)-[(S)-3-(2-fluoro-phenoxy)-pyrrolidin-1-yl]-methanone] it is 98.8%. The result for `CN1CCN(c2cccc(C(=O)N3CCCC(c4cccc(F)c4)C3)n2)CC1` (stereo not drawn) [Example 94, [3-(3-Fluoro-phenyl)-piperidin-1-yl]-[6-(4-methyl-piperazin-1-yl)-pyridin-2-yl]-methanone] reads 90.8%. As for `O=S(=O)(c1cccc(N2CCNCC2)n1)N1CCC(c2ccccc2F)CC1` [Example 51, 1-{6-[4-(2-Fluoro-phenyl)-piperidine-1-sulfonyl]-pyridin-2-yl}-piperazine], the inhibition at 1 µM was 97%. Regarding `Cc1ccccc1OC1CCN(C(=O)c2cccc(C3=CCN(C)CC3)n2)CC1` [Example 98, (1′-Methyl-1′,2′,3′,6′-tetrahydro-[2,4′]bipyridinyl-6-yl)-(4-o-tolyloxy-piperidin-1-yl)-methanone], the inhibition at 1 µM was found to be 99.1%. As for `CN1CC=C(c2cccc(C(=O)N3CCC(Oc4ccccc4Cl)CC3)n2)CC1` [Example 100, [4-(2-Chloro-phenoxy)-piperidin-1-yl]-(1′-methyl-1′,2′,3′,6′-tetrahydro-[2,4′]bipyridinyl-6-yl)-methanone], the inhibition at 1 µM stood at 102%.

For `CN1CC=C(c2cccc(C(=O)N3CCC(Oc4ccccc4C(F)(F)F)CC3)n2)CC1` [Example 101, (1′-Methyl-1′,2′,3′,6′-tetrahydro-[2,4′]bipyridinyl-6-yl)-[4-(2-trifluoromethyl-phenoxy)-piperidin-1-yl]-methanone], the inhibition at 1 µM is 96.9%. Turning to `Cc1ccccc1C1CN(C(=O)c2cccc(N3CCN(C)CC3)n2)C1` [Example 82, [6-(4-Methyl-piperazin-1-yl)-pyridin-2-yl]-(3-o-tolyl-azetidin-1-yl)-methanone], the inhibition at 1 µM was determined as 91.3%. Consider `Cc1cccc(F)c1C1CCN(C(=O)c2cccc(N3CCN(C)CC3)n2)CC1` [Example 23, [4-(2-Fluoro-6-methyl-phenyl)-piperidin-1-yl]-[6-(4-methyl-piperazin-1-yl)-pyridin-2-yl]-methanone], for which the inhibition at 1 µM amounted to 98.3%. For `CN1CCN(c2cccc(C(=O)N3CC=C(c4ccccc4F)CC3)n2)CC1` [Example 21, [4-(2-Fluoro-phenyl)-3,6-dihydro-2H-pyridin-1-yl]-[6-(4-methyl-piperazin-1-yl)-pyridin-2-yl]-methanone], the inhibition at 1 µM is 97.8%.

Consider `CN1CCCN(c2cccc(C(=O)N3CCCC[C@@H]3c3ccccc3F)n2)CC1` [Example 89, [(R)-2-(2-Fluoro-phenyl)-piperidin-1-yl]-[6-(4-methyl-[1,4]diazepan-1-yl)-pyridin-2-yl]-methanone], for which the inhibition at 1 µM was found to be 92.3%. In the case of `Cc1ccccc1C1CCN(S(=O)(=O)c2cccc(N3CCN(C)CC3)n2)CC1` [Example 78, 1-Methyl-4-[6-(4-o-tolyl-piperidine-1-sulfonyl)-pyridin-2-yl]-piperazine], the inhibition at 1 µM is 98.5%. Regarding `CN1CCN(c2cccc(C(=O)N3CC(c4ccccc4F)C3)n2)CC1` [Example 83, [3-(2-Fluoro-phenyl)-azetidin-1-yl]-[6-(4-methyl-piperazin-1-yl)-pyridin-2-yl]-methanone], the inhibition at 1 µM stood at 84.4%. With `CN1CCC(c2cccc(C(=O)N3CCC(c4ccc(F)cc4F)CC3)n2)C1` (stereo not drawn) [Example 108, [4-(2,4-Difluoro-phenyl)-piperidin-1-yl]-[6-(1-methyl-pyrrolidin-3-yl)-pyridin-2-yl]-methanone], the inhibition at 1 µM worked out at 95.4%. Regarding `CN1CCCN(c2cccc(C(=O)N3CC[C@@H](Oc4ccccc4F)C3)n2)CC1` [Example 46, [(R)-3-(2-Fluoro-phenoxy)-pyrrolidin-1-yl]-[6-(4-methyl-[1,4]diazepan-1-yl)-pyridin-2-yl]-methanone], the inhibition at 1 µM is 85%. Take `CN1CC=C(c2cccc(C(=O)N3CCC(Oc4ccccc4F)CC3)n2)CC1` [Example 18, [4-(2-Fluoro-phenoxy)-piperidin-1-yl]-[1′-methyl-1′,2′,3′,6′-tetrahydro-[2,4′]bipyridinyl-6-yl)-methanone]: the inhibition at 1 µM was found to be 95.3%. For `CN1CCC(c2cccc(C(=O)N3CCC(Oc4ccccc4F)CC3)n2)CC1` [Example 99, [4-(2-Fluoro-phenoxy)-piperidin-1-yl]-(1′-methyl-1′,2′,3′,4′,5′,6′-hexahydro-[2,4′]bipyridinyl-6-yl)-methanone], the inhibition at 1 µM stood at 78.4%.
